{"source": "patent US20060293381A1", "about": "“Fungicidal effect by regulating signal transduction pathways” (priority 2005, published 2006)", "key": {"[1]": {"test_system": "C. neoformans", "assay": "NCCLS drug susceptibility assay in liquid medium (MIC80, FIC index, cell density)", "type": "cell-based, Cryptococcus neoformans", "method": "(§1) FIG. 1: [A] Treatment of multiple strains of C. neoformans serotype A H99 with fludioxonil (1 ug ml^−1 and 10 ug ml^−1), calcineurin inhibitor FK506, and FK506+Fludioxonil (1 ug ml^−1). [B] Measurement of cell density of multiple strains of C. neoformans representing relative cell growth after incubation of C. neoformans in culture for 72 hours in various fludioxonil concentrations. The following serotype A strains were used for this assay: WT (H99) (♦), and cna1Δ (▴), hog1Δ (□) and cna1Δ hog1Δ (∘) mutant strains. [C] Measurement of WT H99, hog1Δ, and cna1Δ mutants grown for 48 hours exposed to disks containing 10 ug (Fludiox10), 50 ug (Fludiox50), or 100 ug (Fludiox100) of fludioxonil; 2 ug (FK5062) or 20 ug (FK50620) of FK506; 5 ul of 100% ethanol (ETOH) and dimethyl sulfoxide (DMSO).\nTo quantitatively measure fludioxonil sensitivity, we performed drug susceptibility assays according to NCCLS criteria using a range of fludioxonil concentrations (5 ng ml^−1 to 10 ug ml^−1) to determine the minimum inhibitory concentration (MIC). In this assay, the MIC80 of fludioxonil for the WT strain was <5 ug ml^−1 whereas the MIC80 for the cna1Δ mutant was <100 ng ml^−1 (FIG. 1B and Table 1)."}, "[2]": {"test_system": "C. neoformans", "assay": "Fungal growth on YPD agar containing the drug", "type": "cell-based, Cryptococcus neoformans", "method": "To investigate whether C. neoformans is sensitive to fludioxonil, fungal growth was tested on YPD agar containing the drug. […] To elucidate the role of the HOG pathway in fludioxonil sensitivity, we tested the sensitivity of hog1Δ and pbs2Δ mutants that had been constructed before (Y S Bahn et al., Mol. Biol. Cell. (2005) 16: 2285-2300). […] To examine whether phosphorylation and kinase activity of Hog1 MAPK are required to confer fludioxonil sensitivity, we tested the sensitivity of cells expressing site-directed mutants of Hog1 at the phosphorylation sites (hog1+HOG1^T171A+Y173A) or the catalytic site (hog1+HOG1^K49S+K50N) (FIG. 1A).\n(§2) Two C. neoformans serotypes were tested for sensitivity to fludioxonil at 1 μg/ml and 10 μg/ml to determine whether fludioxonil sensitivity is differentially regulated between the two strains and if it is controlled by the HOG pathway. […] S. cerevisiae is resistant to fludioxonil and was used as a control. Thus differential sensitivity to fludioxonil was seen between the two WT serotypes. The hog1Δ mutation in the serotype D strain JEC21 was resistant to fludioxonil, similar to WT JEC21 (FIG. 2). The hog1Δ mutation in the serotype A strain H99 background, however, was resistant to fludioxonil, unlike WT H99 (FIG. 2). This indicates a critical role for the Hog1 pathway in fludioxonil sensitivity.\nTo determine whether the differential fludioxonil sensitivity observed between the serotype A strain H99 and the serotype D strain JEC21 results from serotype- or strain-specific differences, fludioxonil sensitivity in multiple serotype A and D clinical and environmental strains was investigated. The Hog1 phosphorylation pattern after a 1 hour exposure to fludioxonil was monitored."}, "[3]": {"test_system": "S. cerevisiae", "assay": "Fungal growth on agar containing fludioxonil (control species)", "type": "cell-based", "method": "FIG. 2: Differential fungicidal sensitivity between C. neoformans serotype A strain H99 and serotype D strain JEC21. WT indicates wildtype cells; hog1 indicates a mutant Hog1 gene hog1Δ. S. cerevisiae is used as a control.\nas §2"}, "[4]": {"test_system": "C. neoformans", "type": "cell-based, Cryptococcus neoformans", "method": "as §1\nAdditionally, the fractional inhibitory concentration (FIC) was calculated to determine the FIC index, of which a value <1·0 denotes a synergistic interaction."}, "[5]": {"test_system": "C. neoformans", "assay": "Minimal fungicidal concentration (MFC), NCCLS criteria", "type": "cell-based", "conditions": "Cryptococcus neoformans; WT strain; fludioxonil alone", "text": "To determine whether fludioxonil is fungicidal or fungistatic to C. neoformans, minimal fungicidal concentrations (MFCs) were investigated in accordance with the NCCLS criteria (Table 2)."}, "[6]": {"test_system": "Hog1 MAPK", "assay": "Hog1 phosphorylation pattern by Western Blot", "type": "cell-based, Cryptococcus neoformans", "text": "(§3) FIG. 3: Measurements of Hog1 MAPK activation by rapid dephosphorylation in response to fludioxonil in C. neoformans. Measurements of phosphorylated Hog1 (P-Hog1) and unphosphorylated Hog1 (Hog1) are shown in C. neoformans serotype A strain H99 (H99 WT), H99 cna1Δ, serotype D strain JEC21 (JEC21 WT), and S. cerevisiae. The dual phosphorylation status of Hog1 (T171 and Y173) was monitored using antibody specific for dual phosphorylation of p38 MAPK (P-Hog1). The same blot was stripped and then probed with polyclonal anti-Hog1 antibody as a loading control (Hog1).\nFIG. 4: Measurements of fludioxonil sensitivity and Hog1 phosphorylation patterns in response to fludioxonil in various clinical and environmental serotype A [A] and serotype D [B] isolates. Measurements of phosphorylated Hog1 (P-Hog1) and unphosphorylated Hog1 (Hog1) were done using Western Blot analysis.\n(§4) To determine how Hog1 is regulated in response to fludioxonil in C. neoformans, Hog1 phosphorylation patterns were monitored by Western Blot analysis in response to fludioxonil. When the serotype A strain H99 was exposed to 1 or 10 ug ml^−1 fludioxonil ml^−1, Hog1 was dephosphorylated within 15 minutes and its dephosphorylation status was maintained for 3 hours (FIG. 3). […] On the other hand, in the serotype D strain JEC21 Hog1 was only slightly phosphorylated under normal conditions, only minimally further phosphorylated if at all after 15 minutes of exposure to fludioxonil, and subsequently maintained in an unphosphorylated state for up to 3 hours (FIG. 3). In contrast, Hog1 was rapidly phosphorylated in response to osmotic shock in strain JEC21."}, "[7]": {"test_system": "Hog1", "assay": "Hog1 phosphorylation pattern by Western Blot", "type": "cell-based", "conditions": "S. cerevisiae", "text": "as §3, §4"}, "[8]": {"test_system": "C. neoformans", "assay": "Microscopic observation of cell morphology after fludioxonil", "type": "cell-based, Cryptococcus neoformans", "method": "(§5) FIG. 6: [A] Measurements of morphological changes in response to fludioxonil treatment (10 ug ml^−1 for 48 hours) in serotype A H99 WT [A-b], cna1Δ [A-c], and hog1Δ [A-d]. As a control, serotype A H99 WT was grown without fludioxonil [A-a]. Cells were then observed by microscopy (bar=20 um). [B] Measurements of glycerol content in cell extracts in response to fludioxonil treatment in serotype A WT strain H99, cna1Δ, hog1Δ, and the serotype D WT strain JEC21. Cells were grown to mid-exponential phase and then incubated in 10 ug fludioxonil ml^−1 for the time indicated. Glycerol content in cell extracts was measured by a UV-glycerol assay procedure and normalized to dry cell weight. Two individual experiments were performed and standard deviations are presented as error bars.\nWe microscopically observed cells after exposure to fludioxonil. […] As expected, the morphology of JEC21 cells was not affected by fludioxonil."}, "[9]": {"test_system": "C. neoformans", "assay": "Glycerol content in cell extracts (UV-glycerol assay)", "type": "cell-based, Cryptococcus neoformans", "method": "as §5\nWe measured the glycerol content in C. neoformans after fludioxonil treatment for 1 and 3 hours (FIG. 6B). […] Increased intracellular glycerol levels may trigger non-physiological levels of water influx into the cell, resulting in cell swelling and growth inhibition. […] Alternatively, the cna1Δ mutant cells could be rapidly killed by Hog1 activation prior to accumulating glycerol, because fludioxonil has a fungicidal effect on the cna1Δ mutant (Table 1)."}, "[10]": {"conditions": "WT strain H99, fludioxonil disk 100 ug"}, "[11]": {"conditions": "serotype A strain H99, 1 or 10 ug ml^−1 fludioxonil"}}, "note": "Entries after “also recorded” stand apart in the source; their conditions may differ. Where two headings read alike, the source gives them in different places.", "data": [{"smiles": "N#Cc1c[nH]cc1-c1cccc2c1OC(F)(F)O2", "note": "[fludioxonil, 4-(2,2-difluoro-1,3-benzodioxol-4-yl)pyrrole-3-carbonitrile]", "values": [{"measurement": "MIC80", "setting": "[1]; Cryptococcus neoformans, WT strain, read-out: MIC80", "value": "< 5", "unit": "µg/mL"}, {"measurement": "fludioxonil sensitivity (cell growth, FIG. 1B)", "setting": "[1]; cna1Δ hog1Δ double mutant", "value": "complete resistance"}, {"measurement": "MIC80", "setting": "[1]; cna1Δ mutant", "value": "< 0.1", "unit": "µg/mL"}, {"measurement": "growth in liquid culture", "setting": "[1]; hog1Δ and cna1Δ hog1Δ mutants, even with 10 ug fludioxonil ml^−1", "value": "modest reduction of growth, but still showed robust resistance"}, {"measurement": "fludioxonil sensitivity", "setting": "[2]; 12 independently derived AD hybrid strains", "value": "resistance similar to the parental strain JEC171"}, {"measurement": "growth on agar containing drug", "setting": "[2]; WT serotype D strain JEC21, 1 μg/ml and 10 μg/ml", "value": "complete resistance"}, {"measurement": "growth on agar containing drug", "setting": "[2]; cna1Δ and cnb1Δ mutants (H99 background)", "value": "hypersensitivity"}, {"measurement": "growth on agar containing drug", "setting": "[2]; hog1+HOG1^T171A+Y173A and hog1+HOG1^K49S+K50N site-directed mutants", "value": "as resistant to fludioxonil as the hog1Δ mutant"}, {"measurement": "growth on agar containing drug", "setting": "[2]; hog1Δ mutant (H99 background)", "value": "complete resistance; also recorded: resistant"}, {"measurement": "growth on agar containing drug", "setting": "[2]; hog1Δ mutation in serotype D strain JEC21", "value": "resistant"}, {"measurement": "fludioxonil sensitivity", "setting": "[2]; mpk1Δ mutant", "value": "hypersensitivity"}, {"measurement": "growth defect in response to fludioxonil with osmotic stabilizer", "setting": "[2]; mpk1Δ, mkk1Δ, bck1Δ mutants, supplementation with 1M sorbitol", "value": "partially rescued the growth defect"}, {"measurement": "fludioxonil sensitivity", "setting": "[2]; mutants lacking MKK1 and BCK1 genes", "value": "hypersensitivity"}, {"measurement": "fludioxonil sensitivity", "setting": "[2]; parental serotype A H99 (ura5)", "value": "sensitivity"}, {"measurement": "fludioxonil sensitivity", "setting": "[2]; parental serotype D JEC171 (ade2 lys2)", "value": "resistance"}, {"measurement": "growth on agar containing drug", "setting": "[2]; pbs2Δ mutant (H99 background)", "value": "complete resistance"}, {"measurement": "strains sensitive to fludioxonil", "setting": "[2]; serotype A clinical and environmental strains", "value": "8 of 10"}, {"measurement": "fludioxonil sensitivity", "setting": "[2]; serotype A strains IN-38 and UG-20020, serotype D strains NIH433, JEC21, MMRL757", "value": "clear resistance"}, {"measurement": "growth on agar containing drug", "setting": "[2]; serotype A wild-type (WT) strain H99, fludioxonil 1 and 10 ug ml^−1", "value": "severely inhibited growth; also recorded: sensitivity"}, {"measurement": "strains sensitive to fludioxonil", "setting": "[2]; serotype D clinical and environmental strains", "value": "6 of 9"}, {"measurement": "growth on agar containing drug", "setting": "[3]", "value": "resistant"}, {"measurement": "halo / growth inhibition around disk", "setting": "[4]; [10]", "value": "only modest growth inhibition"}, {"measurement": "halo / growth inhibition around disk", "setting": "[4]; cna1Δ strain, disks with 10, 50, or 100 ug fludioxonil", "value": "large haloes"}, {"measurement": "MFC", "setting": "[5]", "value": "> 10", "unit": "µg/mL"}, {"measurement": "Hog1 phosphorylation pattern", "setting": "[6]; cna1Δ mutant, 1 ug or 10 ug fludioxonil ml^−1", "value": "almost identical to that observed in the wild-type strain"}, {"measurement": "Hog1 activation in response to fludioxonil", "setting": "[6]; resistant clinical/environmental strains, 1 hour incubation", "value": "not activated"}, {"measurement": "Hog1 dephosphorylation status maintained", "setting": "[6]; [11]", "value": 3, "unit": "h"}, {"measurement": "time to Hog1 dephosphorylation", "setting": "[6]; [11]", "value": "≤ 15", "unit": "min"}, {"measurement": "Hog1 activation in response to fludioxonil", "setting": "[6]; serotype D strain JEC21", "value": "only minimally activated, if at all"}, {"measurement": "Hog1 activation in response to fludioxonil", "setting": "[7]", "value": "completely inactive"}, {"measurement": "cell morphology", "setting": "[8]; JEC21 cells", "value": "not affected"}, {"measurement": "cell morphology", "setting": "[8]; WT H99, 10 ug ml^−1 for 48 hours", "value": "some cells were swollen, and interestingly were often attached to each other"}, {"measurement": "cell morphology", "setting": "[8]; cna1Δ mutant, 10 ug ml^−1 for 48 hours", "value": "even more severe cytokinesis defect"}, {"measurement": "cell morphology", "setting": "[8]; hog1Δ mutant, 10 ug ml^−1 for 48 hours", "value": "no swollen morphology or defects in cell division"}, {"measurement": "glycerol content", "setting": "[9]; WT strain H99, 10 ug fludioxonil ml^−1, 1 and 3 hours", "value": "increased after 1 hour exposure, and to an even greater extent after 3 hour incubation"}, {"measurement": "glycerol content", "setting": "[9]; cna1Δ mutant, 10 ug fludioxonil ml^−1, 1 and 3 hours", "value": "increased following 1 hour treatment with fludioxonil but accumulation levels at 3 hours were lower than those of the WT"}, {"measurement": "glycerol content", "setting": "[9]; hog1Δ mutant, 10 ug fludioxonil ml^−1, 1 and 3 hours", "value": "no increase in glycerol"}, {"measurement": "glycerol content", "setting": "[9]; serotype D strain JEC21, 10 ug fludioxonil ml^−1", "value": "little or no glycerol"}]}, {"smiles": "C=CC[C@@H]1/C=C(\\C)C[C@H](C)C[C@H](OC)[C@H]2O[C@@](O)(C(=O)C(=O)N3CCCC[C@H]3C(=O)O[C@H](/C(C)=C/[C@@H]3CC[C@@H](O)[C@H](OC)C3)[C@H](C)[C@@H](O)CC1=O)[C@H](C)C[C@@H]2OC", "note": "[FK506]", "values": [{"measurement": "halo / growth inhibition around disk", "setting": "[4]; [10]", "value": "not inhibited"}]}]}
